Tests used:
Type in all cases: in vivo
[1] = tested on: Boll Weevil (Anthonomus grandis); assay: B.3 Boll Weevil (Anthonomus grandis), microtiter plate insect diet; settings: 120 h, 800 ppm, sprayed onto insect diet, 5 days, in comparison with untreated controls, read-out: mortality (egg and larval)
In short: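 Compounds in 25% DMSO/water sprayed at several concentrations onto insect diet in microtiter wells holding 5–10 A. grandis eggs, two replicates. Plates kept 5 days at about 25±1 °C and 75±5% RH. Egg and larval mortality scored visually.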

[2] = tested on: Mediterranean Fruitfly (Ceratitis capitata); assay: B.6 Mediterranean Fruitfly (Ceratitis capitata), microtiter plate insect diet; settings: 120 h, 800 ppm, sprayed onto insect diet, 5 days, in comparison with untreated controls, read-out: mortality (egg and larval)
In short: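 Insect diet with 50-80 C. capitata eggs sprayed with compounds formulated in 75% water/25% DMSO, at different concentrations, two replications. Incubation at about 28±1° C and 80±5% relative humidity for 5 days, then egg and larval mortality assessed visually.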

[3] = tested on: Diamond Back Moth (Plutella xylostella); assay: B.1 Diamond Back Moth (Plutella xylostella), cabbage leaf dip; settings: foliar, 500 ppm, 3rd instar larvae on dipped cabbage leaves, 72 hours after treatment, in comparison with untreated controls, read-out: mortality
In short: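 Cabbage leaves dipped in compound in 1:1 water:acetone with 0.01% Kinetic HV surfactant, air-dried, then infested with ten 3rd-instar larvae on moist filter paper. Mortality scored at 72 h after treatment; feeding damage rated on a 0-100% scale.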

[4] = tested on: Tobacco Budworm (Heliothis virescens); assay: B.7 Tobacco Budworm (Heliothis virescens) I, microtiter plate insect diet; settings: 120 h, 800 ppm, sprayed onto insect diet, 5 days, in comparison with untreated controls, read-out: mortality (egg and larval)
In short: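 96-well plates with insect diet and 15-25 H. virescens eggs; compounds in 75% water/25% DMSO sprayed onto diet at several concentrations, two replicates. Plates held at about 28±1° C. and 80±5% relative humidity for 5 days, then egg and larval mortality scored visually.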

[5] = tested on: Southern Armyworm (Spodoptera eridania), 2nd Instar Larvae; assay: B.10 Southern Armyworm (Spodoptera eridania), 2nd Instar Larvae, sprayed lima bean plants; settings: 96 h, 300 ppm, larvae on sprayed lima bean plants, 4 days after treatment, in comparison with untreated controls, read-out: mortality
Experimental: B.10 Southern Armyworm (Spodoptera eridania), 2nd Instar Larvae
(§1) The active compounds were formulated by a Tecan liquid handler in 100% cyclohexanone as a 10,000 ppm solution supplied in tubes. The 10,000 ppm solution was serially diluted in 100% cyclohexanone to make interim solutions. These served as stock solutions for which final dilutions were made by the Tecan in 50% acetone:50% water (v/v) into 5 or 10 ml glass vials. A nonionic surfactant (Kinetic®) was included in the solution at a volume of 0.01% (v/v). The vials were then inserted into an automated electrostatic sprayer equipped with an atomizing nozzle for application to plants/insects.
Lima bean plants (variety Sieva) were grown 2 plants to a pot and selected for treatment at the 1st true leaf stage. Test solutions were sprayed onto the foliage by an automated electrostatic plant sprayer equipped with an atomizing spray nozzle. The plants were dried in the sprayer fume hood and then removed from the sprayer. Each pot was placed into perforated plastic bags with a zip closure. About 10 to 11 armyworm larvae were placed into the bag and the bags zipped closed. Test plants were maintained in a growth room at about 25° C. and about 20-40% relative humidity for 4 days, avoiding direct exposure to fluorescent light (24 hour photoperiod) to prevent trapping of heat inside the bags. Mortality and reduced feeding were assessed 4 days after treatment, compared to untreated control plants.

[6] = tested on: Orchid thrips (dichromothrips corbetti); assay: B.12 Orchid thrips (dichromothrips corbetti), floral-immersion technique; settings: adult thrips on dipped orchid petals, 72 hours after treatment, in comparison with untreated controls
In short: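 Whole orchid flower petals were dipped in compound in 1:1 acetone:water with 0.01% v/v Kinetic HV, dried, and enclosed with about 20 adult thrips. They were held under continuous light at about 28° C. Live thrips were counted and percent mortality recorded at 72 hours.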

[7] = tested on: Silverleaf Whitefly (Bemisia argentifoli); assay: B.5 Silverleaf Whitefly (Bemisia argentifoli), sprayed cotton plants; settings: 72 h, whitefly adults on sprayed cotton plants, 3 days after treatment, in comparison with untreated controls
Experimental: B.5 Silverleaf Whitefly (Bemisia argentifoli)
as §1
Cotton plants at the cotyledon stage (one plant per pot) were sprayed by an automated electrostatic plant sprayer equipped with an atomizing spray nozzle. The plants were dried in the sprayer fume hood and then removed from the sprayer. Each pot was placed into a plastic cup and about 10 to 12 whitefly adults (approximately 3-5 days old) were introduced. The insects were collected using an aspirator and a nontoxic Tygon® tubing connected to a barrier pipette tip. The tip, containing the collected insects, was then gently inserted into the soil containing the treated plant, allowing insects to crawl out of the tip to reach the foliage for feeding. Cups were covered with a reusable screened lid. Test plants were maintained in a growth room at about 25° C. and about 20-40% relative humidity for 3 days, avoiding direct exposure to fluorescent light (24 hour photoperiod) to prevent trapping of heat inside the cup. Mortality was assessed 3 days after treatment, compared to untreated control plants.

[8] = tested on: Yellow Fever Mosquito (Aedes aegypti); assay: whole plant or invertebrate; settings: 48 h, freshly hatched larvae in tap water, 2 days, in comparison with untreated controls, read-out: mortality (larval)
Experimental: B.11 Yellow Fever Mosquito (Aedes aegypti)
For evaluating control of yellow fever mosquito (Aedes aegypti) the test unit consisted of 96-well-microtiter plates containing 200 μl of tap water per well and 5-15 freshly hatched A. aegypti larvae.
The active compounds were formulated using a solution containing 75% (v/v) water and 25% (v/v) DMSO. Different concentrations of formulated compounds or mixtures were sprayed onto the insect diet at 2.5 μl, using a custom built micro atomizer, at two replications.

[9] = tested on: Green Peach Aphid (Myzus persicae); assay: B.9 Green Peach Aphid (Myzus persicae), sprayed bell pepper plants; settings: 120 h, infested bell pepper plants sprayed, after 5 days, in comparison with untreated controls
Experimental: B.9 Green Peach Aphid (Myzus persicae)
as §1, with “in 100% cyclohexa none as a” for “in 100% cyclohexanone as a”
Bell pepper plants at the first true-leaf stage were infested prior to treatment by placing heavily infested leaves from the main colony on top of the treatment plants. Aphids were allowed to transfer overnight to accomplish an infestation of 30-50 aphids per plant and the host leaves were removed. The infested plants were then sprayed by an automated electrostatic plant sprayer equipped with an atomizing spray nozzle. The plants were dried in the sprayer fume hood, removed, and then maintained in a growth room under fluorescent lighting in a 24-hr photoperiod at about 25° C. and about 20-40% relative humidity. Aphid mortality on the treated plants, relative to mortality on untreated control plants, was determined after 5 days.

CCc1cccc(C)c1NC(=S)N/N=C/c1ccc2c(ccc3c2ncn3-c2ccc(C(F)(F)F)cc2)c1 [C-78, 1-(2-ethyl-6-methyl-phenyl)-3-[(E)-[3-[4-(trifluoromethyl)phenyl]benzo[e]benzimidazol-7-yl]methyleneamino] thiourea]
≥ 75%: mortality at 800 ppm [1] | mortality at 800 ppm [2] | mortality at 500 ppm [3] | mortality at 800 ppm [4] | mortality at 300 ppm [5] | mortality at 500 ppm [6] | mortality at 300 ppm [7]

CCc1ccccc1NC(=S)N/N=C/c1ccc2c(c1)CCc1c-2cnn1-c1ccc(OC(F)(F)F)cc1 [C-19, 1-(2-ethylphenyl)-3-[[3-[4-(trifluoromethoxy)phenyl]-5,8-dihydro-4H-benzo[e]indazol-7-ylidene]methylimino]thiourea]
≥ 75%: mortality at 300 ppm [7]

Cc1cccc(Cl)c1NC(=S)N/N=C/c1ccc2c(ccc3c2ncn3-c2ccc(SC(F)(F)F)cc2)c1 [C-74, 1-(2-chloro-6-methyl-phenyl)-3-[(E)-[3-[4-(trifluoromethylsulfanyl)phenyl]benzo[e]benzimidazol-7-yl]methyleneamino]thiourea]
≥ 75%: mortality at 800 ppm [8] | mortality at 800 ppm [1] | mortality at 800 ppm [2] | mortality at 500 ppm [3] | mortality at 800 ppm [4] | mortality at 300 ppm [5] | mortality at 300 ppm [7]

C/C(=N\NC(=S)Nc1c(C)cccc1C)c1ccc2c(ccc3c2ncn3-c2ccc(OC(F)(F)F)cc2)c1 [C-58, 1-(2,6-dimethylphenyl)-3-[(E)-1-[3-[4-(trifluoromethoxy)phenyl]benzo[e]benzimidazol-7-yl]ethylideneamino]thiourea]
≥ 75%: mortality at 800 ppm [8] | mortality at 800 ppm [1] | mortality at 800 ppm [2] | mortality at 500 ppm [3] | mortality at 800 ppm [4] | mortality at 300 ppm [5] | mortality at 800 ppm [9] | mortality at 500 ppm [6]

CCc1cccc(C)c1NC(=S)N/N=C/c1ccc2c(ccc3c(-c4ccc(OC(F)(F)F)cc4)n(C)nc32)c1 [C-92, 1-(2-ethyl-6-methyl-phenyl)-3-[(E)-[2-methyl-3-[4-(trifluoromethoxy)phenyl]benzo[g]indazol-7-yl]methyleneamino] thiourea]
≥ 75%: mortality at 800 ppm [8] | mortality at 800 ppm [1] | mortality at 800 ppm [2] | mortality at 500 ppm [3] | mortality at 800 ppm [4] | mortality at 800 ppm [9] | mortality at 500 ppm [6]

O=C(N/N=C/c1ccc2c(ccc3c2ncn3-c2ccc(OC(F)(F)F)cc2)c1)Nc1ccccc1Cl [C-100, 3-(2-chlorophenyl)-1-[[3-[4-(trifluoromethoxy)phenyl]-8H-benzo[e]benzimidazol-7-ylidene]methylimino] isourea]
≥ 75%: mortality at 300 ppm [7]

COc1ccc(C)cc1NC(=S)N/N=C/c1ccc2c(ccc3c2ncn3-c2ccc(OC(F)(F)F)cc2)c1 [C-25, 1-(2-methoxy-5-methyl-phenyl)-3-[(E)-[3-[4-(trifluoromethoxy)phenyl]benzo [e]benzimidazol-7-yl]methyleneamino] thiourea]
≥ 75%: mortality at 800 ppm [1] | mortality at 800 ppm [2] | mortality at 300 ppm [5] | mortality at 800 ppm [9]

Cc1cccc(C)c1NC(=S)N/N=C/c1ccc2c(ccc3c2ncn3-c2ccc(C(F)(F)C(F)(F)F)cc2)c1 [C-110, 1-(2,6-dimethylphenyl)-3-[(E)-[3-[4-(1,1,2,2,2-pentafluoroethyl)phenyl]benzo[e]benzimidazol-7-yl]methyleneamino]thiourea]
≥ 75%: mortality at 800 ppm [8] | mortality at 800 ppm [1] | mortality at 800 ppm [2] | mortality at 800 ppm [4] | mortality at 800 ppm [9]

Cc1cccc(Cl)c1NC(=S)N/N=C/c1ccc2c(ccc3c2ncn3-c2ccc(OC(F)(F)F)cc2)c1 [C-79, 1-(2-chloro-6-methyl-phenyl)-3-[(E)-[3-[4-(trifluoromethoxy)phenyl]benzo[e]benzimidazol-7-yl]methyleneamino] thiourea]
≥ 75%: mortality at 800 ppm [8] | mortality at 800 ppm [1] | mortality at 800 ppm [2] | mortality at 500 ppm [3] | mortality at 800 ppm [4] | mortality at 300 ppm [5] | mortality at 800 ppm [9] | mortality at 500 ppm [6]

FC(F)(F)Oc1ccc(-n2cnc3c4ccc(/C=N/NC(=S)Nc5ccccc5C(F)(F)F)cc4ccc32)cc1 [C-24, 1-[[3-[4-(trifluoromethoxy)phenyl]-9aH-benzo[e]benzimidazol-7-ylidene]methylimino]-3-[2-(trifluoromethyl)phenyl]isothiourea]
≥ 75%: mortality at 800 ppm [1] | mortality at 800 ppm [2] | mortality at 500 ppm [3] | mortality at 500 ppm [6] | mortality at 300 ppm [7]

CSc1cccc(C)c1NC(=S)N/N=C/c1ccc2c(ccc3c2ncn3-c2ccc(OC(F)(F)F)cc2)c1 [C-103, 1-(2-methyl-6-methylsulfanyl-phenyl)-3-[(E)-[3-[4-(trifluoromethoxy)phenyl]benzo[e]benzimidazol-7-yl]methyleneamino]thiourea]
≥ 75%: mortality at 800 ppm [8] | mortality at 800 ppm [1] | mortality at 800 ppm [2] | mortality at 500 ppm [3] | mortality at 800 ppm [4] | mortality at 300 ppm [5] | mortality at 500 ppm [6] | mortality at 300 ppm [7]

Cc1cc(Br)cc(C)c1NC(=S)N/N=C/c1ccc2c(ccc3c2ncn3-c2ccc(OC(F)(F)F)cc2)c1 [C-4, 1-(4-bromo-2,6-dimethyl-phenyl)-3-[(E)-[3-[4-(trifluoromethoxy)phenyl]benzo[e]benzimidazol-7-yl]methyleneamino]thiourea]
≥ 75%: mortality at 800 ppm [8] | mortality at 800 ppm [1] | mortality at 800 ppm [2] | mortality at 500 ppm [3] | mortality at 800 ppm [4] | mortality at 800 ppm [9] | mortality at 500 ppm [6]

Source: patent US9497970B2, “Pesticide compounds” (priority 2013, dated 2016)
